Columns and labels:
[1] = test system: passively sensitized guinea pigs; experiment: acute phase clinical score of conjunctivitis, passively sensitized guinea pigs challenged with ovalbumin; format: in vivo, guinea pig; settings: for effect on olopatadine's inhibition of the acute clinical score: H4 antagonist topical once daily, 0.2% olopatadine 5 minutes later, antigen challenge 60 minutes after dose, scored 30 min after challenge (FIGS. 1, 4); for effect on olopatadine's acute phase effects under different dosing regimens: administered before, after, or in the same drop as 0.2% olopatadine (FIGS. 3, 6); for effect on acute phase clinical score on their own: compound alone, topical, 1 hour prior to challenge
Experimental: (§1) H1 and H4 antagonists were evaluated using an in vivo assay to determine the effect of the H4 antagonist on a co-administered H1 antagonist. Male Hartley VAF outbred guinea pigs were passively sensitized to ovalbumin by a single OD subconjunctival injection of undiluted guinea pig anti-ovalbumin antiserum 24 hours before OD topical challenge with 500 μg ovalbumin in saline. Control animals were injected with saline only and challenged with ovalbumin. To determine acute phase drug efficacy, 30 min after challenge animals were clinically scored by a masked observer for severity of signs of conjunctivitis based on a standard scale.
(§2) Test compounds were administered topically 1 hour prior to challenge. Twenty-four hours after challenge, animals were euthanized and conjunctivae were harvested for determination of tissue eosinophil peroxidase (EPO) concentration as a marker of allergic inflammation and late phase effects. Homogenates of freshly collected tissues were prepared by shaking the tissues in 2 mL round-bottom tubes containing 0.5 mL of homogenization buffer (50 mM Tris HCl, pH 8.0, 6 mM KBr) and one 5-mm stainless steel bead on a Qiagen TissueLyser at 30 Hz for 5 min. Homogenates were frozen and thawed once, then centrifuged at 10,000 rpm for 5 min. EPO activity in supernatants was measured by reacting diluted homogenates with a solution of 6 mM o-phenylenediamine substrate and 8.8 mM H2O2 in homogenization buffer for 3 min. The reaction was stopped with 4M H2SO4 and absorbances were measured at […] on a spectrophotometry plate reader. Total EPO in samples was calculated from a standard curve of recombinant human EPO in each assay. EPO activity was normalized to total protein concentration (Pierce BCA assay) in supernatants. Background EPO activity was determined from the unsensitized, antigen-challenged control group. Percent inhibition was calculated from the sensitized, antigen-challenged, vehicle-treated control group in each experiment. Ovalbumin-injected animals dosed topically with 0.1% w/v dexamethasone (dex) served as positive control. Groups were compared by ANOVA with Dunnett's or Tukey's post-hoc tests where appropriate with significance assigned at the 95% confidence level.

[2] = test system: tissue eosinophil peroxidase (EPO); experiment: late phase allergic response, conjunctival tissue eosinophil peroxidase (EPO) 24 h after challenge; format: in vivo, guinea pig; settings: for inhibition of late phase allergic response: compound alone, EPO 24 hours after challenge (FIGS. 2, 5); for inhibition of late phase response with concomitant olopatadine: concomitant dosing with 0.2% olopatadine (FIGS. 2, 5)
Experimental: as §1, §2

## CN1CCN(c2nc3ccc(C(F)(F)F)cc3n3cnnc23)CC1 [Compound 1, 4-(4-methylpiperazin-1-yl)-8-(trifluoromethyl)-[1,2,4]triazolo[4,3-a]quinoxaline]
[1]
  effect on olopatadine's inhibition of the acute clinical score: dose dependent effect on the inhibition of the acute clinical score relative to olopatadine alone
  effect on olopatadine's acute phase effects under different dosing regimens: reduction of olopatadine's acute phase effects and dose dependency
  effect on acute phase clinical score on their own: Neither Compound 1 nor Compound 2 demonstrate any effect on acute phase clinical score on their own
[2]
  inhibition of late phase allergic response: very good inhibitors of late phase allergic response
  inhibition of late phase response with concomitant olopatadine: slight increase in the inhibition of late phase response

## Clc1ccc2nc(N3CCNCC3)c3nnnn3c2c1 [Compound 2, 8-chloro-4-(piperazin-1-yl)tetrazolo[1,5-a]quinoxaline]
[1]
  effect on olopatadine's inhibition of the acute clinical score: does not show suppression of olopatadine's acute phase effects
  effect on olopatadine's acute phase effects under different dosing regimens: These effects on acute phase response are not seen
  effect on acute phase clinical score on their own: Neither Compound 1 nor Compound 2 demonstrate any effect on acute phase clinical score on their own
[2]
  inhibition of late phase allergic response: very good inhibitors of late phase allergic response
  inhibition of late phase response with concomitant olopatadine: slight increase in the inhibition of late phase response

Reference: patent publication US20120015953A1, “METHODS AND COMPOSITIONS FOR THE TREATMENT OF ALLERGY” (priority 2010, published 2012)
